Assay results: patent publication US20080234266A1, “Squaric Acid Derivatives II” (priority 2005, published 2008)

Molecular target: T1, CHK1 kinase (Homo sapiens, UniProt O14757)
T1 construct: glutathione S-transferase (GST); made in house; host or cells: Sf21 insect cells (S. frugiperda), baculovirus
T1 sequence (O14757 1-476): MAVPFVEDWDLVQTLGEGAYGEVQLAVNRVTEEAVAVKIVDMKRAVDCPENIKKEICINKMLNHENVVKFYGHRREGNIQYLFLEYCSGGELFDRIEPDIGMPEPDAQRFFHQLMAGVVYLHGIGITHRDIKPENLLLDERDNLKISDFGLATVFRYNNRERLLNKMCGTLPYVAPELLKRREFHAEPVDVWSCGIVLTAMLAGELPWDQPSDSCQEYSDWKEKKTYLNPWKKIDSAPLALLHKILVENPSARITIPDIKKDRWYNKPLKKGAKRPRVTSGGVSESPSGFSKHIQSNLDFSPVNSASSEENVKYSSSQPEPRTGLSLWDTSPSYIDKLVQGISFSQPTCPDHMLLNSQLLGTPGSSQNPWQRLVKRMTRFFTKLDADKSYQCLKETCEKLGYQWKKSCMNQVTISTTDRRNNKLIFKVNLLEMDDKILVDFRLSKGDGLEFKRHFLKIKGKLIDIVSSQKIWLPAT
Test: Flashplate method (CHK1), measurement of the CHK1 kinase activity
Type: biochemical
Conditions: class symbols; 'Affinity to receptors'
Method: CHK1 kinase is expressed for the purposes of protein production in insect cells (Sf21; S. frugiperda) and subsequent purification by affinity chromatography as fusion protein with glutathione S-transferase in a baculovirus expression vector. The cultivation, infection and digestion of the cells as well as the purification of the fusion protein by column chromatography are carried out in accordance with manufacturer-oriented generic working instructions.
The kinase activity is measured using various available measurement systems. In the scintillation proximity method (Sorg et al., J. of. Biomolecular Screening, 2002, 7, 11-19), the flashplate method or the filter binding test, the radioactive phosphorylation of a protein or peptide as substrate is measured using radioactively labelled ATP (γ^32P-ATP, (γ^33P-ATP). In the case of the presence of an inhibitory compound, a reduced radioactive signal, or none at all, can be detected. Furthermore, homogeneous time-resolved fluorescence resonance energy transfer (HTR-FRET) and fluorescence polarisation (FP) technologies are useful as assay methods (Sills et al., J. of Biomolecular Screening, 2002, 191-214).
The test plates used are 384-well streptavidin-coated Flashplates Plus® from Perkin Elmer (Cat.No. SMP410A001PK). The assay plate is equilibrated with 75 μl of assay buffer per well 30 min before commencement of the experiment. The buffer is sucked out before commencement of the experiment, and the components of the kinase reaction described below are pipetted onto the plate.
CHK1 kinase, a biotinylated substrate peptide (for example CHKtide: […]), is incubated with radioactively labelled ATP in the presence and absence of test substances at 30° Celsius and a total volume of 50 μl. The reaction is terminated using 25 μl of a 0.2 M EDTA solution. After incubation for 30 min at room temperature, the supernatants are filtered off with suction, and the wells are washed three times with 100 μl of 0.9% NaCl solution each time. The measurement of the bound radioactivity is carried out by means of a scintillation measuring instrument (Topcount NXT, Perkin-Elmer).
The full value used is the inhibitor-free kinase reaction. This should be approximately in the range 3000-4000 cpm. The pharmacological zero value used is staurosporin in a final concentration of 0.1 μM. The inhibitory values (IC50) are determined using the program RS1_MTS ( ).
Kinase reaction conditions per well:
0.15 μg of CHKtide ([…])
50 μl total volume (1-fold assay buffer reaction conditions)
Solutions used: • assay buffer:
0.1 mM Titriplex VI (EGTA
10 mM magnesium acetate 0.1% mercaptoethanol
pH=7.5 (to be set using hydrochloric acid) Bovine serum albumin (final concentration 0.1%) is not added until just before use. • stop solution:
0.2 M TitriplexIII (EDTA)
• γ^33P-ATP (Perkin-Elmer) • CHK1 kinase preparations: specific activity>50 U/mg • CHKtide solution: biotinylated peptide substrate (Biotrend) stored as stock solution (concentration 0.15 mg/ml).

Row | Compound | IC50 [nM]
1 | 3-(3-hydroxybenzylamino)-4-(5-methyl-imidazo[1,2-a]pyridin-6-ylamino)cyclobut-3-ene-1,2-dione [Compound A56] | < 1000
2 | 3-(8-bromoimidazo[1,2-a]pyridin-6-ylamino)-4-(3-hydroxybenzylamino)cyclobut-3-ene-1,2-dione [Compound A60] | < 1000
3 | 3-(8-bromoimidazo[1,2-a]pyridin-6-ylamino)-4-[(R)-1-(3-methoxyphenyl)ethylamino]-cyclobut-3-ene-1,2-dione [Compound A63] | > 1000
4 | 3-[3-(2-methoxyethyl)-3H-benzimidazol-5-ylamino]-4-[(R)-1-(3-methoxyphenyl)ethyl-amino]cyclobut-3-ene-1,2-dione [Compound A67] | > 1000
5 | 3-[(R)-1-(3-methoxyphenyl)ethylamino]-4-(5-methylimidazo[1,2-a]pyridin-6-ylamino)-cyclobut-3-ene-1,2-dione [Compound A58] | > 1000
6 | 3-[(R)-1-(3-methoxyphenyl)ethylamino]-4-(7-methylimidazo[1,2-a]pyridin-6-ylamino)-cyclobut-3-ene-1,2-dione [Compound A57] | > 1000
7 | 3-[(R)-1-(3-methoxyphenyl)ethylamino]-4-(8-methylimidazo[1,2-a]pyridin-6-ylamino)-cyclobut-3-ene-1,2-dione [Compound A59] | > 1000
8 | O=c1c(NCc2cccc(O)c2)c(Nc2ccc3ncsc3c2)c1=O [Compound A14, 3-(benzothiazol-6-ylamino)-4-(3-hydroxy-benzylamino)cyclobut-3-ene-1,2-dione] | < 1000
9 | O=c1c(NCc2cccc(O)c2)c(Nc2ccc3[nH]ccc3c2)c1=O [Compound A29, 3-(1H-indol-5-ylamino)-4-(3-hydroxybenzyl-amino)cyclobut-3-ene-1,2-dione] | > 1000
10 | O=c1c(NCc2cccc(-n3cccc3)c2)c(Nc2ccc3[nH]cnc3c2)c1=O [Compound A35, 3-(1H-benzimidazol-5-ylamino)-4-(3-pyrrol-1-ylbenzylamino)cyclobut-3-ene-1,2-dione] | > 1000
11 | O=c1c(NCc2cccc(C(F)(F)F)c2)c(Nc2ccc3[nH]cnc3c2)c1=O [Compound A37, 3-(1H-benzimidazol-5-ylamino)-4-(3-trifluoro-methylbenzylamino)cyclobut-3-ene-1,2-dione] | > 1000
12 | CN(Cc1cccc(O)c1)c1c(Nc2ccc3[nH]cnc3c2)c(=O)c1=O [Compound A38, 3-(1H-benzimidazol-5-ylamino)-4-[(3-hydroxybenzyl)methylamino]cyclobut-3-ene-1,2-dione] | < 1000
13 | O=c1c(NCc2cccc(O)c2)c(Nc2ccc3[nH]c(S)nc3c2)c1=O [Compound A40, 3-(2-mercapto-1H-benzimidazol-5-ylamino)-4-(3-hydroxybenzylamino)cyclobut-3-ene-1,2-dione] | > 1000
14 | CC(C)(C)NS(=O)(=O)c1cccc(CNc2c(Nc3ccc4[nH]cnc4c3)c(=O)c2=O)c1 [Compound A41, 3-(1H-benzimidazol-5-ylamino)-4-[3-(tert-butylaminosulfonyl)benzylamino]cyclobut-3-ene-1,2-dione] | > 1000

The next lines start with the values.

Row | IC50 [nM] | Compound
15 | > 1000 | 3-(1H-benzimidazol-5-ylamino)-4-[(S)-1-(3-hydroxyphenyl)ethylamino]cyclobut-3-ene-1,2-dione [Compound A4]
16 | > 1000 | CC(Nc1c(Nc2ccc3[nH]ncc3c2)c(=O)c1=O)c1cccc(NC(N)=O)c1 (racemic) [Compound A145, 3-(1H-indazol-5-ylamino)-4-[(R,S)-1-(3-ureidophenyl)ethylamino]cyclobut-3-ene-1,2-dione]
17 | < 100 | O=c1c(NCc2cccc(O)c2)c(Nc2ccc3[nH]cnc3c2)c1=O [Compound A1, 3-(1H-benzimidazol-5-ylamino)-4-(3-hydroxybenzylamino)cyclobut-3-ene-1,2-dione]
18 | < 1000 | COc1cccc([C@@H](C)Nc2c(Nc3ccc4[nH]cnc4c3)c(=O)c2=O)c1 [Compound A2, 3-(1H-benzimidazol-5-ylamino)-4-[(R)-1-(3-methoxyphenyl)ethylamino]cyclobut-3-ene-1,2-dione]
19 | < 100 | C[C@@H](Nc1c(Nc2ccc3[nH]cnc3c2)c(=O)c1=O)c1cccc(O)c1 [Compound A3, 3-(1H-benzimidazol-5-ylamino)-4-[(R)-1-(3-hydroxyphenyl)ethylamino]cyclobut-3-ene-1,2-dione]
20 | < 1000 | NS(=O)(=O)c1cccc(CNc2c(Nc3ccc4[nH]cnc4c3)c(=O)c2=O)c1 [Compound A6, 3-(1H-benzimidazol-5-ylamino)-4-(3-amino-sulfonylbenzylamino)cyclobut-3-ene-1,2-dione]
21 | > 1000 | O=c1c(NCc2cccc(O)c2)c(Nc2ccc3[nH]c(C(F)(F)F)nc3c2)c1=O [Compound A10, 3-(1H-benzimidazol-2-trifluoromethyl-5-yl-amino)-4-(3-hydroxybenzylamino)cyclobut-3-ene-1,2-dione]
22 | > 1000 | O=c1c(NCc2cccc(O)c2)c(Nc2cc3nc[nH]c3cc2Cl)c1=O [Compound A12, 3-(1H-benzimidazol-6-chloro-5-ylamino)-4-(3-hydroxybenzylamino)cyclobut-3-ene-1,2-dione]
23 | < 1000 | O=c1c(NCc2cccc(O)c2)c(NCc2ccc3[nH]nnc3c2)c1=O [Compound A15, 3-(1H-benzotriazol-5-ylmethylamino)-4-(3-hydroxybenzylamino)cyclobut-3-ene-1,2-dione]
24 | > 1000 | O=c1c(NCc2cccc(O)c2)c(Nc2ccc3cc[nH]c3c2)c1=O [Compound A28, 3-(1H-indol-6-ylamino)-4-(3-hydroxybenzyl-amino)cyclobut-3-ene-1,2-dione]
25 | > 1000 | O=c1[nH]c2ccc(Nc3c(NCc4cccc(O)c4)c(=O)c3=O)cc2[nH]1 [Compound A30, 4-(2-oxo-2,3-dihydro-1H-benzimidazol-5-yl-amino)-3-(3-hydroxybenzylamino)cyclobut-3-ene-1,2-dione]
26 | > 1000 | O=c1c(NCc2cccc(F)c2)c(Nc2ccc3[nH]cnc3c2)c1=O [Compound A31, 3-(1H-benzimidazol-5-ylamino)-4-(3-fluoro-benzylamino)cyclobut-3-ene-1,2-dione]
27 | > 1000 | NC(=O)c1c[nH]c2ccc(Nc3c(NCc4cccc(O)c4)c(=O)c3=O)cc12 [Compound A32, 3-(3-aminocarbonyl-1H-indol-5-ylamino)-4-(3-hydroxybenzylamino)cyclobut-3-ene-1,2-dione]
28 | > 1000 | O=c1c(NCc2cccc(Cl)c2)c(Nc2ccc3[nH]cnc3c2)c1=O [Compound A33, 3-(1H-benzimidazol-5-ylamino)-4-(3-chloro-benzylamino)cyclobut-3-ene-1,2-dione]
29 | > 1000 | O=c1c(NCc2cc(Br)ccc2O)c(Nc2ccc3[nH]cnc3c2)c1=O [Compound A36, 3-(1H-benzimidazol-5-ylamino)-4-(3-bromo-6-hydroxybenzylamino)cyclobut-3-ene-1,2-dione]
30 | > 1000 | Cc1cc2cc(Nc3c(NCc4cccc(O)c4)c(=O)c3=O)ccc2[nH]1 [Compound A39, 3-(2-methyl-1H-indol-5-ylamino)-4-(3-hydroxybenzylamino)cyclobut-3-ene-1,2-dione]
31 | > 1000 | O=c1c(NCc2cccc(O)c2)c(Nc2ccc3c(c2)NCC3)c1=O [Compound A42, 3-(2,3-dihydro-1 H-indol-6-ylamino)-4-(3-hydroxybenzylamino)cyclobut-3-ene-1,2-dione]
